In brackets after ≈: the same amount, converted by molar mass.
Experiments:
Chlamydia pneumoniae [1] = assay: Antimicrobial activity against Chlamydophila pneumoniae infected in human Hep2 cells after 72 hrs by fluorescence assay; format: functional, HEp-2
Chlamydia trachomatis [2] = assay: Antimicrobial activity against Chlamydia trachomatis after 72 hrs by twofold serial dilution method; format: functional
Chlamydia pneumoniae [3] = assay: Antimicrobial activity against Chlamydophila pneumoniae infected in human Hep2 cells after 72 hrs by twofold serial dilution method; format: functional, HEp-2
Chlamydia trachomatis [4] = assay: Antimicrobial activity against Chlamydia trachomatis after 72 hrs by fluorescence assay; format: functional
Mycoplasma genitalium = assay: Antimicrobial activity against Mycoplasma genitalium by microtiter plate reader assay; format: functional; conditions: Mycoplasmoides genitalium
Metamycoplasma hominis = assay: Antimicrobial activity against Mycoplasma hominis by microtiter plate reader assay; format: functional
Ureaplasma urealyticum = assay: Antimicrobial activity against Ureaplasma urealyticum by microtiter plate reader assay; format: functional
Neisseria gonorrhoeae = assay: Antimicrobial activity against Neisseria gonorrhoeae by microtiter plate reader assay; format: functional
[5] = system: Mycoplasmoides pneumoniae; assay: Antimicrobial activity against Mycoplasma pneumoniae by microtiter plate reader assay; format: functional

SMILES	MIC50 (Chlamydia trachomatis [2]) [ng/mL]	MIC90 (Chlamydia trachomatis [2]) [ng/mL]	MIC50 (Chlamydia pneumoniae [3]) [ng/mL]	MIC90 (Chlamydia pneumoniae [3]) [ng/mL]	MIC (Mycoplasma genitalium) [ng/mL]	MIC (Metamycoplasma hominis) [ng/mL]	MIC (Ureaplasma urealyticum) [ng/mL]	MIC (Neisseria gonorrhoeae) [ng/mL]	MIC [5] [ng/mL]	MBC90 (Chlamydia pneumoniae [1]) [ng/mL]	MBC90 (Chlamydia trachomatis [4]) [ng/mL]
C[C@H]1c2cccc(O)c2C(=O)C2=C(O)[C@]3(O)C(=O)C(C(N)=O)=C(O)[C@@H](N(C)C)[C@@H]3[C@@H](O)[C@@H]21.O [DOXYCYCLINE]	60	60	60	60	–	–	–	–	–	60	60
CC[C@H]1OC(=O)[C@H](C)[C@@H](O[C@H]2C[C@@](C)(OC)[C@@H](O)[C@H](C)O2)[C@H](C)[C@@H](O[C@@H]2O[C@H](C)C[C@H](N(C)C)[C@H]2O)[C@](C)(O)C[C@@H](C)CN(C)[C@H](C)[C@@H](O)[C@]1(C)O [AZITHROMYCIN]	125 (≈ 167 nM)	125 (≈ 167 nM)	125 (≈ 167 nM)	125 (≈ 167 nM)	–	–	–	–	–	–	–
CC[C@H]1OC(=O)[C@H](C)C(=O)[C@H](C)[C@@H](O[C@@H]2O[C@H](C)C[C@H](N(C)C)[C@H]2O)[C@](C)(OC)C[C@@H](C)C(=O)[C@H](C)[C@H]2N(CCCCn3cnc(-c4cccnc4)c3)C(=O)O[C@]12C [TELITHROMYCIN]	60 (≈ 73.9 nM)	60 (≈ 73.9 nM)	60 (≈ 73.9 nM)	60 (≈ 73.9 nM)	–	–	–	–	–	60 (≈ 73.9 nM)	60 (≈ 73.9 nM)

Further molecules by falling MIC50 (Chlamydia trachomatis [2]), results first:

MIC50 (Chlamydia trachomatis [2]) [ng/mL]	MIC90 (Chlamydia trachomatis [2]) [ng/mL]	MIC50 (Chlamydia pneumoniae [3]) [ng/mL]	MIC90 (Chlamydia pneumoniae [3]) [ng/mL]	MIC (Mycoplasma genitalium) [ng/mL]	MIC (Metamycoplasma hominis) [ng/mL]	MIC (Ureaplasma urealyticum) [ng/mL]	MIC (Neisseria gonorrhoeae) [ng/mL]	MIC [5] [ng/mL]	SMILES	MBC90 (Chlamydia pneumoniae [1]) [ng/mL]	MBC90 (Chlamydia trachomatis [4]) [ng/mL]
250 (≈ 296 nM)	250 (≈ 296 nM)	250 (≈ 296 nM)	250 (≈ 296 nM)	≤ 0.03	≤ 0.03	0.03 (≈ 0.0355 nM)	≤ 250	≤ 500	CC[C@H]1OC(=O)[C@@](C)(F)C(=O)[C@H](C)[C@@H](O[C@@H]2O[C@H](C)C[C@H](N(C)C)[C@H]2O)[C@](C)(OC)C[C@@H](C)C(=O)[C@H](C)[C@H]2N(CCCCn3cc(-c4cccc(N)c4)nn3)C(=O)O[C@]12C [SOLITHROMYCIN]	250 (≈ 296 nM)	250 (≈ 296 nM)
60 (≈ 80.2 nM)	60 (≈ 80.2 nM)	60 (≈ 80.2 nM)	60 (≈ 80.2 nM)	–	–	–	–	–	CC[C@H]1OC(=O)[C@H](C)[C@@H](O[C@H]2C[C@@](C)(OC)[C@@H](O)[C@H](C)O2)[C@H](C)[C@@H](O[C@@H]2O[C@H](C)C[C@H](N(C)C)[C@H]2O)[C@](C)(OC)C[C@@H](C)C(=O)[C@H](C)[C@@H](O)[C@]1(C)O [CLARITHROMYCIN]	60 (≈ 80.2 nM)	60 (≈ 80.2 nM)
